Starred links: 1 amine or outer side, 2 acyl side, 3 side chain; linkers in the order of their positions; H or OH if unused. Positions of bridges follow the written chain, without caps; N, C: chain ends. Non-standard residues stand in square brackets, D forms with d. Residues, ends and D or L forms follow the SMILES beside them. *: point of attachment. hPhe(3-Cl-4-CF3) = N[C@@H](CCc1ccc(C(F)(F)F)c(Cl)c1)C(=O)O; X29 = N#Cc1cc(CC[C@H](N[*:1])C(=O)[*:2])cc(Cl)c1Cl; NMePhe(3-Me) = CN[C@@H](Cc1cccc(C)c1)C(=O)O; NMePhe(4-Me) = CN[C@@H](Cc1ccc(C)cc1)C(=O)O; NMeNle(6-CHF2) = CN[C@@H](CCCCC(F)F)C(=O)O; X6 = CCN([C@@H](CC1CCCCC1)C(=O)[*:2])[*:1]; NMedβ3hAla = C[C@H](CC(=O)[*:2])N(C)[*:1]; NMeGly(cPent) = CN[C@H](C(=O)O)C1CCCC1; NMeAla(cPr) = CN[C@@H](CC1CC1)C(=O)O; NMeGly(cBu) = CN[C@H](C(=O)O)C1CCC1; NMeCha = CN[C@@H](CC1CCCCC1)C(=O)O; NEtLeu = CCN[C@@H](CC(C)C)C(=O)O; NMeChg = CN[C@H](C(=O)O)C1CCCCC1; NMeF = CN[C@@H](Cc1ccccc1)C(=O)O; NMeI = CC[C@H](C)[C@H](NC)C(=O)O; NMeD = CN[C@@H](CC(=O)O)C(=O)O; NMeL = CN[C@@H](CC(C)C)C(=O)O; NMeV = CN[C@H](C(=O)O)C(C)C; d(β3hA) = C[C@@H](N)CC(=O)O; NMeA = CN[C@@H](C)C(=O)O; Piperidide = C1CCN(*)CC1; dNMeA = CN[C@H](C)C(=O)O; Ac5c = NC1(C(=O)O)CCCC1; Aze = O=C(O)[C@@H]1CCN1; Aib = CC(C)(N)C(=O)O; Sar = CNCC(=O)O

Test [1] concerns the target T1, Kras and SOS1 (biotin-tagged human Kras loaded with GDP, His-tagged human SOS1) (Homo sapiens, UniProt P01116, G12D).
T1 construct: made in house; host or cells: E. coli (stated for Kras only)
In words: Protein-protein interaction inhibition between Kras and SOS1 (KrasGl2D-SOS PPI) using AlphaScreen. The conditions noted are these: AlphaScreen; biotin-tagged human Kras loaded with GDP, His-tagged human SOS1; read-out: KRAS G12D-SOS PPI IC50. Type of test: binding. In a few lines: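 Kras was produced in E. coli, purified, then loaded with GDP. It was paired via streptavidin acceptor beads with His-SOS1 held on nickel donor beads, and proximity signal at 520-620 nm was read after 680 nm illumination.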

Test [2] deals with Human pancreatic cancer cell line AsPC-1. In words: Measurement of AsPC-1 cell growth inhibition (AsPC-1 CGI). The test is classed as cell-based. To be noted: 96 h. In short, it runs like this:
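AsPC-1 cells in 15% FBS RPMI-1640 were exposed to test compound for 96 hours at 37° C, with CellTiter-Glo as endpoint.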

T1 sequence (P01116 1-188 isoform P01116-2 G12D): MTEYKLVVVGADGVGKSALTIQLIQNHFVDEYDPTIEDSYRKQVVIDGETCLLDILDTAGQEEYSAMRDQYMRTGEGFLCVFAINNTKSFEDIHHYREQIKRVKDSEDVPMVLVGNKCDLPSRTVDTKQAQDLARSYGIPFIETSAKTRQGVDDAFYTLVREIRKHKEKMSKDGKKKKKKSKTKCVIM

The term IC50 denotes the concentration that inhibits the measured activity by half. Regarding `CC[C@H](C)[C@@H]1NC(=O)[C@H](C)N(C)C(=O)C[C@@H](C(=O)N2CCCCC2)N(C)C(=O)[C@H](C2CCCCC2)N(C)C(=O)C2(CCCC2)NC(=O)[C@@H]2CCCN2C(=O)[C@H](CCc2ccc(C(F)(F)F)c(Cl)c2)NC(=O)CN(C)C(=O)[C@H](CC2CCCCC2)N(C)C(=O)CN(C)C(=O)CN(C)C1=O` [Compound 1696] ([NMeA]I[Sar][Sar][NMeCha][Sar][hPhe(3-Cl-4-CF3)]P[Ac5c][NMeChg][NMeD]-Piperidide; lactam N-11), the IC50 in test [1] was 0.00057 µM; in test [2], 0.05 to 0.1 µM.
For the compound `CC[C@H](C)[C@@H]1NC(=O)[C@H](CC(C)C)N(C)C(=O)C[C@@H](C(=O)N(C)C)N(C)C(=O)[C@H](C2CCCC2)N(C)C(=O)C2(CCCC2)NC(=O)[C@H](Cc2cccc(C)c2)N(C)C(=O)[C@H](CCc2ccc(C(F)(F)F)c(Cl)c2)NC(=O)CN(C)C(=O)[C@H](CC2CCCCC2)N(C)C(=O)[C@@H]2CCN2C(=O)[C@H](C)N(C)C1=O` [Compound 449] ([NMeL]I[NMeA][Aze][NMeCha][Sar][hPhe(3-Cl-4-CF3)][NMePhe(3-Me)][Ac5c][NMeGly(cPent)][NMeD]-NMe2; lactam N-11), the figures for the IC50 in test [1] and in test [2] were 0.03 µM and 0.1 to 0.5 µM, respectively.
As to `CC[C@H](C)[C@@H]1NC(=O)[C@H](CC(C)C)N(CC)C(=O)C[C@@H](C(=O)N2CCCCC2)N(C)C(=O)[C@H](C2CCCCC2)N(C)C(=O)C2(CCCC2)NC(=O)[C@@H]2CCCN2C(=O)[C@H](CCc2ccc(C(F)(F)F)c(Cl)c2)NC(=O)CN(C)C(=O)[C@H](CC2CCCCC2)N(C)C(=O)CN(C)C(=O)CN(C)C1=O` [Compound 137] ([NEtLeu]I[Sar][Sar][NMeCha][Sar][hPhe(3-Cl-4-CF3)]P[Ac5c][NMeChg][NMeD]-Piperidide; lactam N-11), the IC50 in test [1] was 0.00076 µM; in test [2], 0.05 to 0.1 µM.
The matching figures for `CC[C@H](C)[C@@H]1NC(=O)[C@H](CC(C)C)N(C)C(=O)C[C@@H](C(=O)N2CCCCC2)N(C)C(=O)[C@H](C(C)C)N(C)C(=O)C(C)(C)NC(=O)[C@@H]2CCCN2C(=O)[C@H](CCc2ccc(C(F)(F)F)c(Cl)c2)NC(=O)CN(C)C(=O)[C@H](CC2CCCCC2)N(C)C(=O)[C@@H]2CCN2C(=O)[C@H](C)N(C)C1=O` [Compound 1751] ([NMeL]I[NMeA][Aze][NMeCha][Sar][hPhe(3-Cl-4-CF3)]P[Aib][NMeV][NMeD]-Piperidide; lactam N-11): 0.0073 µM and 0.1 to 0.5 µM.
Regarding `CC[C@H](C)[C@@H]1NC(=O)[C@H](CCCCC(F)F)N(C)C(=O)C[C@@H](C(=O)N2CCCCC2)N(C)C(=O)[C@H](C2CCCCC2)N(C)C(=O)C2(CCCC2)NC(=O)[C@@H]2CCCN2C(=O)[C@H](CCc2ccc(C(F)(F)F)c(Cl)c2)NC(=O)CN(C)C(=O)[C@H](CC2CCCCC2)N(C)C(=O)CN(C)C(=O)CN(C)C1=O` [Compound 425] ([NMeNle(6-CHF2)]I[Sar][Sar][NMeCha][Sar][hPhe(3-Cl-4-CF3)]P[Ac5c][NMeChg][NMeD]-Piperidide; lactam N-11), the IC50 in test [1] is 0.00057 µM; in test [2] it was 0.05 to 0.1 µM.
With `CC[C@H](C)[C@@H]1NC(=O)[C@H](CC(C)C)N(C)C(=O)C[C@@H](C(=O)N2CCCCC2)N(C)C(=O)[C@H](C2CCCCC2)N(C)C(=O)C2(CCCC2)NC(=O)[C@@H]2CCCN2C(=O)[C@H](CCc2ccc(C(F)(F)F)c(Cl)c2)NC(=O)CN(C)C(=O)[C@H](CC2CCCCC2)N(CC)C(=O)CN(C)C(=O)CN(C)C1=O` [Compound 543] ([NMeL]I[Sar][Sar][X6][Sar][hPhe(3-Cl-4-CF3)]P[Ac5c][NMeChg][NMeD]-Piperidide; lactam N-11), the IC50 is 0.00056 µM in test [1] and 0.05 to 0.1 µM in test [2].
Turning to `CC[C@H](C)[C@@H]1NC(=O)[C@H](CC(C)C)N(C)C(=O)C[C@@H](C)N(C)C(=O)[C@H](CC2CC2)N(C)C(=O)C2(CCCC2)NC(=O)[C@@H]2CCCN2C(=O)[C@H](CCc2ccc(C(F)(F)F)c(Cl)c2)NC(=O)CN(C)C(=O)[C@H](CC2CCCCC2)N(C)C(=O)CN(C)C(=O)CN(C)C1=O` [Compound 1019] (cyclo([Ac5c][NMeAla(cPr)][NMedβ3hAla][NMeL]I[Sar][Sar][NMeCha][Sar][hPhe(3-Cl-4-CF3)]P)), the IC50 in test [1] is 0.014 µM; in test [2], 0.1 to 0.5 µM.
For `CC[C@H](C)[C@@H]1NC(=O)[C@H](C)N(C)C(=O)C[C@@H](C(=O)N2CCCCC2)N(C)C(=O)[C@H](C2CCCCC2)N(C)C(=O)C2(CCCC2)NC(=O)[C@@H]2CCCN2C(=O)[C@H](CCc2cc(Cl)c(Cl)c(C#N)c2)NC(=O)CN(C)C(=O)[C@H](CC2CCCCC2)N(C)C(=O)CN(C)C(=O)CN(C)C1=O` [Compound 2075] ([NMeA]I[Sar][Sar][NMeCha][Sar][X29]P[Ac5c][NMeChg][NMeD]-Piperidide; lactam N-11), in that order: 0.0011 µM and greater than 0.5 µM.
As for `CC[C@H](C)[C@@H]1NC(=O)[C@H](CC(C)C)N(C)C(=O)C[C@@H](C(=O)N2CCCCC2)N(C)C(=O)[C@H](C(C)C)N(C)C(=O)C2(CCCC2)NC(=O)[C@@H]2CCCN2C(=O)[C@H](CCc2ccc(C(F)(F)F)c(Cl)c2)NC(=O)CN(C)C(=O)[C@H](Cc2ccccc2)N(C)C(=O)CN(C)C(=O)CN(C)C1=O` [Compound 1598] ([NMeL]I[Sar][Sar][NMeF][Sar][hPhe(3-Cl-4-CF3)]P[Ac5c][NMeV][NMeD]-Piperidide; lactam N-11), the IC50 was 0.0092 µM in test [1] and 0.1 to 0.5 µM in test [2].
Turning to `CC[C@H](C)[C@@H]1NC(=O)[C@H](CC(C)C)N(C)C(=O)C[C@@H](C)N(C)C(=O)[C@H](C2CCC2)N(C)C(=O)C2(CCCC2)NC(=O)[C@@H]2CCCN2C(=O)[C@H](CCc2ccc(C(F)(F)F)c(Cl)c2)NC(=O)CN(C)C(=O)[C@H](CC2CCCCC2)N(C)C(=O)CN(C)C(=O)CN(C)C1=O` [Compound 845] (cyclo([Ac5c][NMeGly(cBu)][NMedβ3hAla][NMeL]I[Sar][Sar][NMeCha][Sar][hPhe(3-Cl-4-CF3)]P)), the IC50 in test [1] was 0.0082 µM; in test [2] it was 0.05 to 0.1 µM.
For `CC[C@H](C)[C@@H]1NC(=O)[C@H](CC(C)C)N(C)C(=O)C[C@@H](C)NC(=O)[C@H](C2CCCC2)N(C)C(=O)C(C)(C)NC(=O)[C@@H]2CCCN2C(=O)[C@H](CCc2ccc(C(F)(F)F)c(Cl)c2)NC(=O)CN(C)C(=O)[C@H](Cc2ccc(C)cc2)N(C)C(=O)[C@@H]2CCN2C(=O)[C@H](C)N(C)C1=O` [Compound 354] (cyclo([Aib][NMeGly(cPent)][d(β3hA)][NMeL]I[NMeA][Aze][NMePhe(4-Me)][Sar][hPhe(3-Cl-4-CF3)]P)), in that order: 0.0016 µM and 0.1 to 0.5 µM.
Regarding `CC[C@H](C)[C@@H]1NC(=O)[C@H](CC(C)C)N(C)C(=O)C[C@@H](C(=O)N(C)C)N(C)C(=O)[C@H]([C@@H](C)CC)N(C)C(=O)C2(CCCC2)NC(=O)[C@@H](C)N(C)C(=O)[C@H](CCc2ccc(C(F)(F)F)c(Cl)c2)NC(=O)CN(C)C(=O)[C@H](Cc2ccc(C)cc2)N(C)C(=O)[C@@H]2CCN2C(=O)[C@H](C)N(C)C1=O` [Compound 288] ([NMeL]I[NMeA][Aze][NMePhe(4-Me)][Sar][hPhe(3-Cl-4-CF3)][dNMeA][Ac5c][NMeI][NMeD]-NMe2; lactam N-11), the IC50 was 0.0017 µM in test [1] and 0.1 to 0.5 µM in test [2].
